Active and inactive are the calls of the source.
Legend:
Staphylococcus aureus = test: Antibacterial activity against Staphylococcus aureus Newman assessed as inhibition of bacterial growth measured after 18 to 28 hrs by microbroth dilution assay; type: functional, organism-based; conditions: time 18-28 hrs
Mucor hiemalis = test: Antifungal activity against Mucor hiemalis DSM 2656 assessed as inhibition of fungal growth measured after 18 to 48 hrs by microbroth dilution assay; type: functional, organism-based; conditions: time 18-48 hrs
[1] = test system: Mycolicibacterium smegmatis; test: Antibacterial activity against Mycobacterium smegmatis (DSM 43756) assessed as inhibition of bacterial growth measured after 18 to 28 hrs by microbroth dilution assay; type: functional, organism-based; conditions: time 18-28 hrs
Pseudomonas aeruginosa = test: Antibacterial activity against Pseudomonas aeruginosa PA14 (DSM 19882) assessed as inhibition of bacterial growth measured after 18 to 48 hrs by microbroth dilution assay; type: functional, organism-based; conditions: time 18-48 hrs
Candida albicans = test: Antifungal activity against Candida albicans DSM 1665 assessed as inhibition of fungal growth measured after 18 to 48 hrs by microbroth dilution assay; type: functional, organism-based; conditions: time 18-48 hrs
HepG2 = test: Antiproliferative activity against human HepG2 cells incubated for 5 days by MTT assay; type: functional, cell-based; conditions: time 5.0 day
Escherichia coli [2] = test: Antibacterial activity against Escherichia coli JW0451-2 assessed as inhibition of bacterial growth measured after 18 to 48 hrs by microbroth dilution assay; type: functional, organism-based; conditions: time 18-48 hrs
Bacillus subtilis = test: Antibacterial activity against Bacillus subtilis DSM10T assessed as inhibition of bacterial growth measured after 18 to 28 hrs by microbroth dilution assay; type: functional, organism-based; conditions: time 18-28 hrs
Escherichia coli [3] = test: Antibacterial activity against Escherichia coli DSM 1116T assessed as inhibition of bacterial growth measured after 18 to 48 hrs by microbroth dilution assay; type: functional, organism-based; conditions: time 18-48 hrs

Measured: Activity

C[C@H](CC[C@@H](O)C(C)(C)O)[C@H]1C[C@@H](O)[C@H]2[C@@H]3C(=O)C[C@H]4C[C@@H](O)CC[C@]4(C)[C@H]3CC[C@@]21C
inactive: all assays above

C[C@H](CC[C@@H](O)C(C)(C)O)[C@H]1C[C@@H](O)[C@H]2[C@@H]3C(=O)C[C@H]4C[C@@H](O)CC[C@]4(C)[C@H]3CC[C@@]21CO
inactive: all assays above

From ChEMBL document CHEMBL5257074, “Structure Elucidation and Biosynthesis of Nannosterols A and B, Myxobacterial Sterols from Nannocystis sp. MNa10993” (J Nat Prod, 2023)
